Results taken from PubChem BioAssay AID1963445 (Molecular Pharmacology Branch, DTP, NCI, 2024).
Values belong to the molecule of their own block, whether it stands above or below them.

Tested on: MCF7 complex spheroid growth, % test/control
Assay: Anticancer human tumor MCF7 cell line growth inhibition [Asc];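 note: spheroids exposed to compounds for 7 days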;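 for viability, T/C: 100% = DMSO vehicle control wells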
Settings: for IC50: curve of first compound; for viability, T/C: stronger effect = lower value
In short: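 Stromal components (HUVEC and hMSC) are co-assembled with the cancer cells into multicellular spheroids. Drugs are then added singly or paired, at concentrations falling by half-log increments from a clinically achievable maximum, capped at 10 microM without known Cmax.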

[1] = second compound 0.0316 µM, first compound 0.0316 µM
[2] = second compound 0.0316 µM, first compound 0.1 µM
[3] = second compound 0.0316 µM, first compound 0.316 µM
[4] = second compound 0.0316 µM, first compound 1 µM
[5] = second compound 0.0316 µM, first compound 3.16 µM
[6] = second compound 0.0316 µM, first compound 10 µM
[7] = second compound 0.1 µM, first compound 0.0316 µM
[8] = second compound 0.1 µM, first compound 0.1 µM
[9] = second compound 0.1 µM, first compound 0.316 µM
[10] = second compound 0.1 µM, first compound 1 µM
[11] = second compound 0.1 µM, first compound 3.16 µM
[12] = second compound 0.1 µM, first compound 10 µM
[13] = second compound 0.316 µM, first compound 0.0316 µM
[14] = second compound 0.316 µM, first compound 0.1 µM
[15] = second compound 0.316 µM, first compound 0.316 µM
[16] = second compound 0.316 µM, first compound 1 µM
[17] = second compound 0.316 µM, first compound 3.16 µM
[18] = second compound 0.316 µM, first compound 10 µM
[19] = second compound 1 µM, first compound 0.0316 µM
[20] = second compound 1 µM, first compound 0.1 µM
[21] = second compound 1 µM, first compound 0.316 µM
[22] = second compound 1 µM, first compound 1 µM
[23] = second compound 1 µM, first compound 3.16 µM
[24] = second compound 1 µM, first compound 10 µM
[25] = second compound 0.0316 µM, first compound 0.00316 µM
[26] = second compound 0.0316 µM, first compound 0.01 µM
[27] = second compound 0.1 µM, first compound 0.00316 µM
[28] = second compound 0.1 µM, first compound 0.01 µM
[29] = second compound 0.316 µM, first compound 0.00316 µM
[30] = second compound 0.316 µM, first compound 0.01 µM
[31] = second compound 1 µM, first compound 0.00316 µM
[32] = second compound 1 µM, first compound 0.01 µM
[33] = second compound 3.16 µM, first compound 0.00316 µM
[34] = second compound 3.16 µM, first compound 0.01 µM
[35] = second compound 3.16 µM, first compound 0.0316 µM
[36] = second compound 3.16 µM, first compound 0.1 µM
[37] = second compound 3.16 µM, first compound 0.316 µM
[38] = second compound 3.16 µM, first compound 1 µM
[39] = second compound 10 µM, first compound 0.00316 µM
[40] = second compound 10 µM, first compound 0.01 µM
[41] = second compound 10 µM, first compound 0.0316 µM
[42] = second compound 10 µM, first compound 0.1 µM
[43] = second compound 10 µM, first compound 0.316 µM
[44] = second compound 10 µM, first compound 1 µM

IC50 (second compound 0.00316 µM): < 31.6 nM
IC50 (second compound 0.01 µM): < 31.6 nM
IC50 (second compound 0.0316 µM): < 31.6 nM
IC50 (second compound 0.1 µM): < 31.6 nM
IC50 (second compound 0.316 µM): < 31.6 nM
IC50 (second compound 1 µM): < 31.6 nM
Structure (SMILES): C=CC(=O)N1CCN(c2nc(=O)n(-c3c(C)ccnc3C(C)C)c3nc(-c4c(O)cccc4F)c(F)cc23)C(C)C1 (stereo not drawn) + CNC(C)C(=O)NC1CN(S(=O)(=O)c2cccc(S(=O)(=O)N3CCC4CCC(C(=O)NC(c5ccccc5)c5ccccc5)N4C(=O)C(NC(=O)C(C)NC)C3)c2)CCC2CCC(C(=O)NC(c3ccccc3)c3ccccc3)N2C1=O
viability, T/C (second compound 0.00316 µM, first compound 0.0316 µM): 68.5%
viability, T/C (second compound 0.00316 µM, first compound 0.1 µM): 29%
viability, T/C (second compound 0.00316 µM, first compound 0.316 µM): 30.4%
viability, T/C (second compound 0.00316 µM, first compound 1 µM): 54.8%
viability, T/C (second compound 0.00316 µM, first compound 3.16 µM): 60.5%
viability, T/C (second compound 0.00316 µM, first compound 10 µM): 57.9%
viability, T/C (second compound 0.01 µM, first compound 0.0316 µM): 20.1%
viability, T/C (second compound 0.01 µM, first compound 0.1 µM): 15%
viability, T/C (second compound 0.01 µM, first compound 0.316 µM): 13.6%
viability, T/C (second compound 0.01 µM, first compound 1 µM): 16.9%
viability, T/C (second compound 0.01 µM, first compound 3.16 µM): 29.6%
viability, T/C (second compound 0.01 µM, first compound 10 µM): 46%
viability, T/C [1]: 12.7%
viability, T/C [2]: 14.4%
viability, T/C [3]: 12.5%
viability, T/C [4]: 16.3%
viability, T/C [5]: 30.7%
viability, T/C [6]: 36.6%
viability, T/C [7]: 14.1%
viability, T/C [8]: 12%
viability, T/C [9]: 16.8%
viability, T/C [10]: 16.2%
viability, T/C [11]: 20.2%
viability, T/C [12]: 33%
viability, T/C [13]: 14.5%
viability, T/C [14]: 13.5%
viability, T/C [15]: 15.2%
viability, T/C [16]: 12.1%
viability, T/C [17]: 18.6%
viability, T/C [18]: 33.7%
viability, T/C [19]: 13%
viability, T/C [20]: 12.8%
viability, T/C [21]: 11.7%
viability, T/C [22]: 14.8%
viability, T/C [23]: 16.5%
viability, T/C [24]: 28.9%

IC50 (second compound 0.0316 µM): > 1000 nM
IC50 (second compound 0.1 µM): > 1000 nM
IC50 (second compound 0.316 µM): > 1000 nM
IC50 (second compound 1 µM): > 1000 nM
IC50 (second compound 3.16 µM): > 1000 nM
IC50 (second compound 10 µM): > 1000 nM
Structure (SMILES): CCN1CCN(Cc2ccc(Nc3ncc(F)c(-c4cc(F)c5nc(C)n(C(C)C)c5c4)n3)nc2)CC1 + Cc1c(S(C)(=O)=O)c(-c2cc(F)cc(N3CCN(c4ccc(NS(=O)(=O)c5ccc(NC(CCN6CCC(C(=O)OCCCP(=O)(O)O)CC6)CSc6ccccc6)c(S(=O)(=O)C(F)(F)F)c5)cc4)CC3)c2)c(-c2ccc(Cl)cc2)n1C(C)C
viability, T/C [25]: 101%
viability, T/C [26]: 96.7%
viability, T/C [1]: 106%
viability, T/C [2]: 95.6%
viability, T/C [3]: 91.4%
viability, T/C [4]: 72.8%
viability, T/C [27]: 92.8%
viability, T/C [28]: 86%
viability, T/C [7]: 86.3%
viability, T/C [8]: 85.2%
viability, T/C [9]: 101%
viability, T/C [10]: 87.3%
viability, T/C [29]: 100%
viability, T/C [30]: 94.2%
viability, T/C [13]: 98.8%
viability, T/C [14]: 95%
viability, T/C [15]: 94.6%
viability, T/C [16]: 69.1%
viability, T/C [31]: 91.6%
viability, T/C [32]: 98.9%
viability, T/C [19]: 79.5%
viability, T/C [20]: 88.4%
viability, T/C [21]: 103%
viability, T/C [22]: 69.2%
viability, T/C [33]: 90.2%
viability, T/C [34]: 85.7%
viability, T/C [35]: 92.8%
viability, T/C [36]: 88.5%
viability, T/C [37]: 92.1%
viability, T/C [38]: 73.1%
viability, T/C [39]: 136%
viability, T/C [40]: 124%
viability, T/C [41]: 182%
viability, T/C [42]: 134%
viability, T/C [43]: 114%
viability, T/C [44]: 61.6%

IC50 (second compound 0.0316 µM): > 1000 nM
IC50 (second compound 0.1 µM): > 1000 nM
IC50 (second compound 0.316 µM): > 1000 nM
IC50 (second compound 1 µM): > 1000 nM
IC50 (second compound 3.16 µM): > 1000 nM
IC50 (second compound 10 µM): > 1000 nM
Structure (SMILES): O=C(c1ccc(F)c(F)c1Nc1ccc(I)cc1F)N1CC(O)([C@@H]2CCCCN2)C1 + Cc1c(S(C)(=O)=O)c(-c2cc(F)cc(N3CCN(c4ccc(NS(=O)(=O)c5ccc(NC(CCN6CCC(C(=O)OCCCP(=O)(O)O)CC6)CSc6ccccc6)c(S(=O)(=O)C(F)(F)F)c5)cc4)CC3)c2)c(-c2ccc(Cl)cc2)n1C(C)C
viability, T/C [25]: 101%
viability, T/C [26]: 97.2%
viability, T/C [1]: 88.6%
viability, T/C [2]: 83.2%
viability, T/C [3]: 95.2%
viability, T/C [4]: 112%
viability, T/C [27]: 101%
viability, T/C [28]: 89.7%
viability, T/C [7]: 93.6%
viability, T/C [8]: 88.8%
viability, T/C [9]: 94.8%
viability, T/C [10]: 90%
viability, T/C [29]: 90.7%
viability, T/C [30]: 88.2%
viability, T/C [13]: 81%
viability, T/C [14]: 93.1%
viability, T/C [15]: 96.4%
viability, T/C [16]: 84.2%
viability, T/C [31]: 84.8%
viability, T/C [32]: 78%
viability, T/C [19]: 82.9%
viability, T/C [20]: 94.5%
viability, T/C [21]: 109%
viability, T/C [22]: 74.3%
viability, T/C [33]: 80.9%
viability, T/C [34]: 86.5%
viability, T/C [35]: 80.1%
viability, T/C [36]: 98.5%
viability, T/C [37]: 82.6%
viability, T/C [38]: 81.8%
viability, T/C [39]: 159%
viability, T/C [40]: 164%
viability, T/C [41]: 204%
viability, T/C [42]: 182%
viability, T/C [43]: 114%
viability, T/C [44]: 90.8%

IC50 (second compound 0.0316 µM): 3440 nM
IC50 (second compound 0.1 µM): 4540 nM
IC50 (second compound 0.316 µM): 3000 nM
IC50 (second compound 1 µM): 3920 nM
IC50 (second compound 3.16 µM): 3290 nM
IC50 (second compound 10 µM): 4230 nM
Structure (SMILES): C=C(F)C(=O)N1CCN(c2nc(OCC3CCCN3C)nc3c2CCN(c2cccc4cccc(Cl)c24)C3)CC1CC#N (stereo not drawn) + Cc1c(S(C)(=O)=O)c(-c2cc(F)cc(N3CCN(c4ccc(NS(=O)(=O)c5ccc(NC(CCN6CCC(C(=O)OCCCP(=O)(O)O)CC6)CSc6ccccc6)c(S(=O)(=O)C(F)(F)F)c5)cc4)CC3)c2)c(-c2ccc(Cl)cc2)n1C(C)C
viability, T/C [1]: 105%
viability, T/C [2]: 108%
viability, T/C [3]: 87.6%
viability, T/C [4]: 75.2%
viability, T/C [5]: 60.7%
viability, T/C [6]: 0.25%
viability, T/C [7]: 107%
viability, T/C [8]: 90.5%
viability, T/C [9]: 97.3%
viability, T/C [10]: 95.8%
viability, T/C [11]: 72.7%
viability, T/C [12]: 0.14%
viability, T/C [13]: 103%
viability, T/C [14]: 88.8%
viability, T/C [15]: 86.8%
viability, T/C [16]: 87%
viability, T/C [17]: 48%
viability, T/C [18]: 0.13%
viability, T/C [19]: 96.3%
viability, T/C [20]: 82.6%
viability, T/C [21]: 87.1%
viability, T/C [22]: 81.5%
viability, T/C [23]: 61.8%
viability, T/C [24]: 0.17%
viability, T/C [35]: 97.9%
viability, T/C [36]: 86%
viability, T/C [37]: 84.2%
viability, T/C [38]: 81.7%
viability, T/C (second compound 3.16 µM, first compound 3.16 µM): 50.8%
viability, T/C (second compound 3.16 µM, first compound 10 µM): 0.17%
viability, T/C [41]: 200%
viability, T/C [42]: 167%
viability, T/C [43]: 231%
viability, T/C [44]: 223%
viability, T/C (second compound 10 µM, first compound 3.16 µM): 66.7%
viability, T/C (second compound 10 µM, first compound 10 µM): 0.3%
